# Tested on: Col-0 plants
# Assay: growth of wild type plants in the presence of 2,3 butanediol
# Type: in vivo, Arabidopsis thaliana
# Description: Top left: phenotypes of Col-0 (wild type; Arabidopsis thaliana) and genetically modified plants expressing the transgenic PROTON (H+-) pyrophosphatase in all tissues (AVP1) or in phloem cells only (pCoY), where average yields are AVP1>pCoY>Col-0 (FIG. 7). Left center: differential root acidification capacity of each genotype. Left bottom: 16S rRNA based composition of the root associated microbiomes (RAMs) through principal component analyses. Middle: Metabolomic profile of root exudates of the three plant genotypes, depicted as a heat map of relative concentration (each column a pools n>3 plants). Top right: Enrichment of proportional abundance of query and control pathways in the metagenome of rhizosphere RAMs. Middle right: Effect of exposure to 250 μM 2,3-butanediol on root development of Col-0 plants. Bottom right: mechanistic model for plant-microbe interactions at the base of phenotype enhancement and transferability.
# To determine how the plant genotype can be made extensive to the RAM, we made use of a second mutant plant (pCoYMV::AVP1; pCoY hereafter), which overexpresses the H+-PPase in companion cells and sieve elements of the plant's phloem (22). […] We then assessed a second potential driver: root exudates. We determined the root exudate profiles, or exometabolome (23), of the three genotypes when grown under sterility on agar-solidified medium. […]
smiles,measurement,setting,value
"CC(O)C(C)O (centres unmarked) [2,3 butanediol, 2,3-butanediol]",phenotype in root development of wild type plants,"wild type (Col-0) plants exposed to 250 μM 2,3-butanediol (FIG. 3)","AVP1-like, high yield phenotypes"
same,phenotype in shoots of wild type plants,"wild type (Col-0) plants grown in the presence of 2,3 butanediol, 250 μM per FIG. 3 legend","AVP1-like, high yield phenotypes"

# Reference: patent US20250270576A1, “AGRICULTURAL COMPOSITIONS AND METHODS OF USING THE SAME” (Arizona Board of Regents on behalf of Arizona State …, priority 2021, published 2025)
